Where a name gives a salt, the structure may show the parent alone.
test system: human platelet-rich plasma; assay: Platelet aggregation assay (Aggregation-Human PRP/ADP); assay type: cell-based; settings: 1 min; human platelet-rich plasma incubated with compound 1 minute at 37° C.; ADP-induced aggregation; read-out: Agg: Human PRP/ADP IC50uM
Protocol: Platelet-rich plasma was prepared from healthy human volunteers for use in determining inhibition of platelet aggregation by the compounds.
Platelet-rich plasma was prepared at room temperature by centrifugation of the citrated whole blood at 100×g for 12 minutes. The platelet rich plasma contained approximately 200-400,000 platelets/μl.
Platelet-poor plasma was prepared by centrifugation of citrated whole blood at 12,000×g for 2 minutes.
Platelet aggregation was assayed in a 4-channel platelet aggregation profiler (PAP-4, Biodata, Hatboro, Pa.) according to the manufacturers directions. Inhibition of platelet aggregation was studied by adding varying amounts of […] to stirred human platelet-rich plasma. Specifically, the human platelet-rich plasma was incubated with the compound being tested for 1 minute at 37° C. prior to the addition of a variety of aggregating agents most often ADP 5 μM, but also 1 μg/ml collagen, 1 μM U46619 and 0.3 μM platelet activating factor.

SMILES | IC50
CCOC(=O)CC1CC(C)(C)c2cc(NC(=O)c3ccc(C(=N)N)cc3)ccc2O1 (racemic) [Example 79, Hydrochloride] | > 100 µM
CCOC(=O)CC1CCc2cc(NC(=O)c3ccc(C(=N)N)cc3Cl)ccc2O1 (racemic) [Example 75, acetate Hydrochloride] | 1.8 µM
CCCOC(=O)CC1CCc2cc(NC(=O)c3ccc(C(=N)N)cc3)ccc2O1 (racemic) [Example 86, hydrochloride] | 0.078 µM
N=C(N)NCc1ccc(COc2ccc3c(c2)CCN(CC(=O)O)C3=O)cc1 [Example 21, 6-[[4-(Guanidinomethyl)phenyl]methoxy]-3,4-dihydro-1-oxo-2(1H)-isoquinoline Acetic Acid Trifluoroacetate] | > 100 µM
CC1(C)CC(CC(=O)O)Oc2ccc(NC(=O)c3ccc(C(=N)N)cc3)cc21 (racemic) [Example 80, rac-(6-(N-(4-(Aminoiminomethyl)benzoyl)amino)-3,4-dihydro-4,4-dimethyl-2H-1-benzopyran-2-yl)acetic Acid] | > 100 µM
CCOC(=O)CCC1(C)CC(=O)c2cc(OCc3ccc(C(=N)N)cc3)ccc2O1 (racemic) [Example 66, Hydrochloride] | > 100 µM
O=C(O)CC1CCc2cc(OCCCCC3CCNCC3)ccc2O1 (racemic) [Example 54, rac-(3,4-Dihydro-6-(4-(piperidin-4-yl)butoxy)-2H-1-benzopyran-2-yl)acetic Acid Trifluoroacetate] | 12 µM
N=C(N)c1ccc(C(=O)Nc2ccc3c(c2)CCC(CC(=O)O)C3=O)cc1 (stereo not shown) [Example 30] | 0.06 µM
CCCCNC(=N)c1ccc(C(=O)Nc2ccc3c(c2)CCC(CC(=O)OCC)O3)cc1 (racemic) [Example 83, Hydrochloride] | 0.14 µM
CCCNC(=N)c1ccc(C(=O)Nc2ccc3c(c2)CCC(CC(=O)OCC)O3)cc1 (racemic) [Example 81, Hydrochloride] | 0.39 µM
CCOC(=O)CC1CCc2cc(NC(=O)/C=C/C3CCNCC3)ccc2O1 (racemic) [Example 77, Ethyl rac-(3,4-Dihydro-6-(N-(3-(piperidine-4-yl)propenoyl)amino)-2H-1-benzopyran-2-yl)acetate Trifluoroacetate] | 1.3 µM
CC1(CCC(=O)O)CC(=O)c2cc(OCc3ccc(C(=N)N)cc3)ccc2O1 (racemic) [Example 67, Hydrochloride] | 29 µM
COC(=O)CC1CCc2cc(NC(=O)c3ccc(C(=N)N)cc3)ccc2O1 (racemic) [Example 87, Hydrochloride] | 0.084 µM
CCOC(=O)CC1CCc2cc(OCc3ccc(C(=N)N)cc3)ccc2O1 (racemic) [Example 45, Hydrochloride] | 11 µM
CCOC(=O)CCC1(C)C=Cc2cc(OCc3ccc(C(=N)N)cc3)ccc2O1 (racemic) [Example 52, Hydrochloride] | 100 µM
NC(=O)c1ccc(C(=O)Nc2ccc3c(c2)CCC(CC(=O)O)O3)cc1 (racemic) [Example 49, rac-(6-(N-(4-Carbamoylbenzoyl)amino)-3,4-dihydro-2H-1-benzopyran-2-yl)acetic Acid] | 100 µM
CCOC(=O)CC1CCc2cc(NC(=O)c3ccc(C(=N)N)cc3Cl)ccc2C1=O (racemic) [Example 62, Hydrochloride] | 6.8 µM
CCCOC(=O)NC(=N)c1ccc(C(=O)Nc2ccc3c(c2)CCC(CC(=O)OCC)O3)cc1 (racemic) [Example 85] | > 100 µM
CCOC(=O)CC1CCc2cc(NC(=O)c3ccc(C(=N)NCc4ccccc4)cc3)ccc2O1 (racemic) [Example 92, Ethyl rac-(3,4-Dihydro-6-(N-(4-(N′-(phenylmethylamino)iminomethyl)benzoyl)amino)-2H-1-benzopyran-2-yl)acetate Hydrochloride] | 0.24 µM

— patent US6448269B1 (Eli Lilly and Company, priority 1993, dated 2002)
